Data on 2 compounds can be found in publication PMC9958891 (2023).

For assay [1], the system named is 5'-FAM-c-myc-TAMRA-3' (c-myc G4 DNA, FRET) (DNA, G4) TGAGGGTGGGTAGGGTGGGTAA
Kind of assay: FRET melting. The note with it: K+ 100 mM, Na+ (10 mM Na3AsO4); 10 mM Tris-HCl pH 7.4; 0.2 μM DNA; compound concentration not stated; value per abstract, b23 order differs.

Assay [2] relates to c-myc Pu22 (c-myc G4 DNA) (DNA, G4) TGAGGGTGGGTAGGGTGGGTAA
As to the kind of experiment: UV-vis absorption titration. The note with it: K+ 100 mM; 10 mM Tris-HCl, pH 7.2, room temperature; 20 μM complex.

Consider `COc1ccc(CCc2cc(OC)c(OC)c(OC)c2)cc1OCCCCn1c(-c2ccccc2C(F)(F)F)nc2c3cccnc3c3ncccc3c21.[Ru+2].c1cnc2c(c1)ccc1cccnc12.c1cnc2c(c1)ccc1cccnc12`, for which the ΔTm in assay [1] was ~ 15.5 °C.

As to `COc1ccc(CCc2cc(OC)c(OC)c(OC)c2)cc1OCCCCn1c(-c2ccc(C(F)(F)F)cc2)nc2c3cccnc3c3ncccc3c21.[Ru+2].c1cnc2c(c1)ccc1cccnc12.c1cnc2c(c1)ccc1cccnc12`, the binding constant in assay [2] is reported as ~ 2.05 × 10^7 M^−1. In addition, the ΔTm in assay [1] is ~ 16.5 °C.
